Measurements taken from patent publication US6777193B1, “Methods for diagnostic and/or treatment of antiphospholipids antibodies-related diseases, and devices” (Escuela Nacional de Ciencias Biologicas, del Instituto …, priority 2000, dated 2004).

What was measured:
H308 monoclonal antibody = test: Inhibition of H308 monoclonal antibody by phosphorylated haptens (liposomal-ELISA); type: binding, mouse; details: for inhibition of H308 monoclonal antibody reaction with lipidic particles in liposomes: hapten 0.2 to 1.0 μmol
Experimental: Studies on inhibition of anti-lipidic particles antibodies were carried out using liposomes as antigens and the antigen-antibody reaction was analyzed by the liposomal-ELISA method, which includes the following steps:
A) A first step of addition and incubation, in which an effective quantity of an antigen suspension is added to each one of the wells of the ELISA microtiter plate. This microtiter plate is selected among those with a high lipidic antigens binding property and said microtiter plate is incubated between 25 to 30° C. for 0.25 to 2 h.
B) A second step of addition and incubation, in which an effective quantity of a blocking solution is added to each one of the wells of the ELISA microtiter plate with a high lipidic antigens binding property, and said microtiter plate being incubated at a temperature between 25 to 30° C. for 0.25 to 2 h.
C) A step of elimination of blocking solution, preferably by suction, avoiding that microtiter plate becomes dry when blocking solution is eliminated, because liposomal antigens can be damaged.
D) A step of inhibition of the antibody porter, in which the antibody porter is incubated with a chemical substance, or hapten, that will inhibit the active site that recognizes the antigen in the antibody porter.
E) A third step of addition and incubation, in which an effective quantity of the antibody porter inhibited by the hapten was quickly added, to avoid that microtiter plate becomes dry, to each one of the wells using an antibody porter dilution from 1:5 to 1:1000 into blocking solution. This microtiter plate being incubated for 0.25 to 2 h at a temperature between 25 to 30° C.
F) A first step of washing, in which the microtiter plate is washed with the blocking solution, preferably repeating 4-times and avoiding that microtiter plate becomes dry when eliminating the blocking solution.
G) A fourth step of addition and incubation, in which an effective quantity of a second antibody is added to each one of the wells of microtiter plate. This plate is incubated in the darkness for 0.25 to 2 h at a temperature between 25 to 30° C. Second antibody is selected preferably among antibodies from a different specie to that of the antibody porter and they can be anti-Fc of human IgG, IgA and IgM or of the animal in study, or antibodies anti-Fc of IgM or of IgG depending on the nature of the monoclonal antibody when this is the antibody porter. Second antibody is used in a final dilution into blocking solution between […] and 1:3500 and it is conjugated to an enzyme preferably to peroxidase.
H) A second step of washing, in which the microtiter plate is washed with the blocking solution, preferably repeating 4-times and avoiding that microtiter plate becomes dry when eliminating the blocking solution.
I) A fifth step of addition and incubation, in which an effective quantity of the peroxidase sustrates is added to each one of the wells and this microtiter plate is incubated for 0.1 to 0.5 h at a temperature between .35 and 40° C., stopping the peroxidase reaction by adding an effective quantity of sulfuric acid.
J) A step of analysis, in which microtiter plate is analyzed using a reading device for ELISA plates, preferably at 492 nm.
In a specific embodiment, the hapten solution is obtained dissolving hapten in a buffer solution at pH between 7.0 and 7.4, in a relationship from 0.1 to 10 mmoles of hapten per liter of buffer solution.
Costar microtiter plates, with 96 flat-bottom wells with a high lipidic antigens binding property (Costar Co. Cambrige, USA) were coated by the addition to each one of the wells of 100 μl of liposomes made from egg-yolk phosphatidylcholine:phosphatidate (2:1 molar ratio) in Tris-NaCl buffer (10 mM, 1 mM) pH 7, containing 0.1 μmol of phosphatidate, and treated with 5 mM CaCl2 to induce lipidic particles formation. Microtiter plates were incubated at room temperature for 1 h and they were blocked for 1 h at room temperature in a similar way as was described in Example 1. […]

BALB/c female mice [1] = test: Treatment of the pathology induced by H308 monoclonal antibody in mice; type: in vivo, mouse; details: for therapeutically effective quantity: of body weight, BALB/c female mice given H308
Experimental: H308 monoclonal antibody was administered by intraperitoneal injection of 1 μg each week during two months to BALB/c female mice, and simultaneously the glycerolphosphorylcholine hapten was administered at 2.5 mg/Kg, of body weight, doses by intravenous injection each 24 hs, for 2-months.
Spermidine was administered, as chlorhydrate, in a dose of 1 mg/Kg, of body weight, by intraperitoneal injection each 24 hs, during two months.

[2] = test system: egg-yolk phosphatidylcholine:phosphatidate (2:1 molar ratio) liposomes; test: Stabilization of liposomal membranes (liposomal cytofluorometry, SSC/FSC); details: for concentration effective in stabilizing lipidic bilayers: blocks lipidic particles induced by chlorpromazine at 0.2 mM and 0.6 mM; for lipidic particles formation and liposomal aggregation, simultaneous incubation with chlorpromazine: liposomes incubated simultaneously with chlorpromazine and stabilizer drug; for reaction of stabilized liposomes with H308 monoclonal antibody: liposomes incubated with chlorpromazine and stabilizer drug
Experimental: In relation to the stabilization of membranes with drugs that avoid the formation of lipidic particles in liposomal model membranes or in cellular membranes, which in turn avoid the subsequent union of anti-lipidic particles antibodies, the studies were carried out with liposomal or cellular antigens using the cytofluorometry method. In a favorite modality this method includes the following steps:
A) A first step of incubation, in which the antigen suspension, liposomes or cells, are incubated with a drug that stabilizes its lipidic bilayers, this drug being used at a concentration of 0.1 up to 100 mM, the obtained mixture is incubated for 0.25 to 2 h at a temperature between 35 and 40° C.
These studies were carried out with a modification in the liposomal cytofluorometry method with liposomes made from egg-yolk phosphatidylcholine:phosphatidate (2:1 molar ratio) in Tris-NaCl buffer (10 mM, 1 mM) pH 7, containing 0.1 μmol of phosphatidate, and treated with 0.2 mM chlorpromazine to induce lipidic particles formation, as antigens.
Liposomal preparations were incubated for 30 min at room temperature and were used as antigens. The reaction of these stabilized liposomes with H308 monoclonal antibody was analyzed by the liposomal cytofluorometry method as was described in Example 2A, in a FACSCalibur Flow Cytometer equipped with a single 488 nm argon laser beam (Beckton Dickinson).
Relative size and/or liposomal aggregation were analyzed in the FSC channel and the granularity or liposomal bilayers complexity in the SSC channel. Analysis of 10,000 liposomes was made in a logarithmic mode with the following detectors: FSC in E00, with a detector compensation threshold of 52 V and SSC of 401 V (Baeza et al., op. cit., 1995). The obtained data were analyzed with the Cellquest program (Beckton Dickinson).

Ag4 mouse myeloma cells [3] = test: Stabilization of cellular membranes (cytofluorometry); type: cell-based; details: chlorpromazine 0.2 mM plus stabilizer drug; for development of lipidic particles in Ag4 cellular membranes: 30 min
Experimental: The reaction of these stabilized Ag4 mouse myeloma cells with […] monoclonal antibody was analyzed by the cytofluorometry method in a FACSCalibur Flow Cytometer equipped with a single […] argon laser beam (Beckton Dickinson). Relative size and/or Ag4 mouse myeloma cells aggregation were analyzed in the FSC channel and the granularity or cellular membranes complexity in the SSC channel. Analysis of 10,000 […] mouse myeloma cells was made with the following detectors: FSC in […] in lineal mode with an amplifier gain of 2 V, with a detector compensation threshold of 52 V, and SSC of 250 V. The obtained data were analyzed with the Cellquest program (Beckton Dickinson).

[4] = test system: egg-yolk phosphatidylcholine:phosphatidate (2:1 molar ratio) liposomes; test: Lipidic particles reversion in liposomes; details: chlorpromazine 0.2 mM for 30 min before stabilizer drug
Experimental: (§1) Examples 7 and 7A were repeated using as antigens egg-yolk phosphatidylcholine:phosphatidate (2:1 molar ratio) liposomes, in Tris-NaCl buffer (10 mM, 1 mM) pH 7, and containing 0.1 μmol of phosphatidate, or Ag4 mouse myeloma cells. […] Stabilizer drugs were used at the concentrations used in Example 7A.

Ag4 mouse myeloma cells [5] = test: Lipidic particles reversion in cells; type: cell-based; details: chlorpromazine 0.2 mM for 30 min before stabilizer drug
Experimental: as §1

[6] = test system: egg-yolk phosphatidylcholine:phosphatidate (2:1 molar ratio) liposomes; test: Stabilization of liposomal membranes (liposomal cytofluorometry, SSC/FSC); details: without chlorpromazine
BALB/c female mice [7] = test: Induction of anti-lipidic particles antibodies and pathology in immunized/treated mice; type: in vivo, mouse; details: for pathology developed in BALB/c female mice: after immunization or treatment as in Examples 4A-4C; for immunized BALB/c female mice that produced anti-lipidic particles antibodies: intramuscular, chlorpromazine 3 mg/Kg or procainamide 10 mg/Kg each 24 hs for 2-months
Experimental: Ten, 2-months age, BALB/c female mice were immunized by intrasplenic injection of 100 μg of egg-yolk phosphatidylcholine:phosphatidate liposomes (2:1 molar ratio) in Tris-NaCl buffer (10 mM, 1 mM) pH 7, containing 0.1 μmol of phosphatidate, and treated with MnCl2 5 mM to induce lipidic particles formation. Intrasplenic immunization was repeated 2-weeks later by the method described by Nilsson et al. (op. cit. 1987). Additionally, BALB/c female mice were intraperitoneally injected with the same liposomes dose 2-weeks later, then they were boosted 4-times at 2-weeks intervals.
After seven days of the last immunization female mice were bled from the orbital sinus to analyze the presence of anti-lipidic particles antibodies in the obtained sera. Using this immunization procedure, 60% of the immunized BALB/c female mice produced anti-lipidic particles antibodies.
Ten, 2-months age, BALB/c female mice were immunized by intrasplenic injection of 100 μg of egg-yolk phosphatidylcholine:phosphatidate liposomes (2:1 molar ratio) in Tris-NaCl buffer (10 mM, 1 mM) pH 7, containing 0.1 μmol of phosphatidate, and treated with the lipidic particles inducer drug procainamide at a concentration of 8 mM. Immunization was carried out as it was indicated in Example 4. After seven days of the last immunization female mice were bled from the orbital sinus to analyze the presence of anti-lipidic particles antibodies in the obtained sera. Using this immunization procedure, 70% of the immunized BALB/c female mice produced anti-lipidic particles antibodies.
Ten, 2-months age, BALB/c female mice were immunized by intramuscular injection of the lipidic particles inducer drugs chlorpromazine or procainamide, using 3 mg/Kg, of body weight, for chlorpromazine and 10 mg/Kg, of body weight, for procainamide, each 24 hs, for 2-months. Drug doses were similar to those that are administered in the medical treatment of humans; in psychotic and maniacs dysfunctions for chlorpromazine and those that were used for the treatment of cardiac arrhythmias for procainamide.
After seven days of the last intramuscular injection female mice were bled from the orbital sinus to analyze the presence of anti-lipidic particles antibodies in the obtained sera. Using this immunization procedure, 50% of the immunized BALB/c female mice produced anti-lipidic particles antibodies.
Ten, 2-months age, BALB/c female mice were immunized by intraperitoneal injection of 1 μg of anti-lipidic particles H308 monoclonal antibody, each week, for 2-months. After seven days of the last intraperitoneal injection female mice were bled from the orbital sinus to analyze the presence of anti-lipidic particles antibodies in the obtained sera. […]

NC(COP(=O)(O)O)C(=O)O (stereo not drawn) [phosphorylserine]
inhibition of H308 monoclonal antibody reaction with lipidic particles in liposomes (H308 monoclonal antibody): do not cause any inhibition

NCCCCNCCCN [spermidine]
development of mice pathology induced by H308 monoclonal antibody (BALB/c female mice [1]; as chlorhydrate, 1 mg/Kg intraperitoneal each 24 hs, two months): results similar to those described with chloroquine
therapeutically effective quantity (BALB/c female mice [1]): 1 mg/kg
concentration effective in stabilizing lipidic bilayers [2]: 5 µM
lipidic particles formation and liposomal aggregation, simultaneous incubation with chlorpromazine [2]: there were not lipidic particles formation neither liposomal aggregation
reaction of stabilized liposomes with H308 monoclonal antibody [2]: do not react with H308 monoclonal antibody
reaction of stabilized Ag4 cells with H308 monoclonal antibody (Ag4 mouse myeloma cells [3]): do not react with the H308 monoclonal antibody
development of lipidic particles in Ag4 cellular membranes (Ag4 mouse myeloma cells [3]): do not develop lipidic particles with chlorpromazine
reversion of lipidic particles and liposomal aggregation caused by chlorpromazine [4]: reverted
reversion of lipidic particles and cellular aggregation caused by chlorpromazine (Ag4 mouse myeloma cells [5]): reverted
change in liposomal aggregation and liposomal bilayers complexity, stabilizer drug alone [6]: do not produce any change

N[C@@H](COP(=O)(O)OCC(O)CO)C(=O)O (stereo partly drawn) [glycerolphosphorylserine]
inhibition of H308 monoclonal antibody reaction with lipidic particles in liposomes (H308 monoclonal antibody): do not cause any inhibition

C[N+](C)(C)CCOP(=O)(O)O [phosphorylcholine]
absorbance at 492 nm of H308 immunoreaction (H308 monoclonal antibody; 0.6 μmoles of hapten): 0.06
inhibition in immunoreaction of H308 monoclonal antibody (H308 monoclonal antibody; 0.6 μmoles of hapten, with regard to reaction in absence of hapten): 82%

NCCOP(=O)(O)O [phosphorylethanolamine]
inhibition of H308 monoclonal antibody reaction with lipidic particles in liposomes (H308 monoclonal antibody): do not cause any inhibition

CN(C)CCCN1c2ccccc2Sc2ccc(Cl)cc21 [chlorpromazine]
pathology developed in BALB/c female mice (BALB/c female mice [7]): development of a pathology similar to the human antiphospholipid syndrome secondary to systemic lupus erythematosus
immunized BALB/c female mice that produced anti-lipidic particles antibodies (BALB/c female mice [7]): 50%
increase in SSC and FSC values (lipidic particles and liposomal aggregation) ([2]; 0.2 mM): 100 fold
SSC values ([2]; graph B, FIG. 16, presence of lipidic particles): higher than 1000 units

CCN(CC)CCNC(=O)c1ccc(N)cc1 [procainamide]
pathology developed in BALB/c female mice (BALB/c female mice [7]): development of a pathology similar to the human antiphospholipid syndrome secondary to systemic lupus erythematosus
immunized BALB/c female mice that produced anti-lipidic particles antibodies (BALB/c female mice [7]): 50%

CCN(CC)CCCC(C)Nc1ccnc2cc(Cl)ccc12 (stereo not drawn) [chloroquine]
therapeutically effective quantity (BALB/c female mice [1]): 2.5 mg/kg
concentration effective in stabilizing lipidic bilayers [2]: 0.1 µM
lipidic particles formation and liposomal aggregation, simultaneous incubation with chlorpromazine [2]: there were not lipidic particles formation neither liposomal aggregation
reaction of stabilized liposomes with H308 monoclonal antibody [2]: do not react with H308 monoclonal antibody
reaction of stabilized Ag4 cells with H308 monoclonal antibody (Ag4 mouse myeloma cells [3]): do not react with the H308 monoclonal antibody
development of lipidic particles in Ag4 cellular membranes (Ag4 mouse myeloma cells [3]): do not develop lipidic particles with chlorpromazine
reversion of lipidic particles and liposomal aggregation caused by chlorpromazine [4]: reverted
reversion of lipidic particles and cellular aggregation caused by chlorpromazine (Ag4 mouse myeloma cells [5]): reverted
change in liposomal aggregation and liposomal bilayers complexity, stabilizer drug alone [6]: do not produce any change
